In one experiment the target is T1, CG6178 (Drosophila melanogaster, UniProt Q9VCC6).
T1 sequence (Q9VCC6 1-544): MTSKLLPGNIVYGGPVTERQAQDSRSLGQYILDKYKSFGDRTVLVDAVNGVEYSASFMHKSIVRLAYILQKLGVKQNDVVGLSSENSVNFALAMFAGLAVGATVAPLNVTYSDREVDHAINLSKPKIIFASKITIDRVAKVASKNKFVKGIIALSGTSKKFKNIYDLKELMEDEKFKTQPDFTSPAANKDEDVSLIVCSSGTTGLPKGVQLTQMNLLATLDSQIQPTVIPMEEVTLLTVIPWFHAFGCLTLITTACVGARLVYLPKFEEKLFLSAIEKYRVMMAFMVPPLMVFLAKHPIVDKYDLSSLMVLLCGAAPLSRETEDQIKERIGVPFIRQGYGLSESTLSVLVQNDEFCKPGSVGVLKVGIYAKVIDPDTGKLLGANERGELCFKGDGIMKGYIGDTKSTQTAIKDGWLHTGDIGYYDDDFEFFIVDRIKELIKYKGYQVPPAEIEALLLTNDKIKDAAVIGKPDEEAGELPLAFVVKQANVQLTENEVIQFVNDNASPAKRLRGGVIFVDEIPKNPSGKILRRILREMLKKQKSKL
The experiment in a line: bioluminescence. Type of experiment: biochemical. As to conditions: ATP, MgSO4, pH 7.4; 20 nM enzyme, 250 uM luciferin.

In experiment [1] the target is T2, firefly luciferase (Photinus pyralis, UniProt P08659). The experiment in a line: bioluminescence burst kinetics after rapid injection. As to conditions: 100 nM enzyme, 100 uM substrate. Type of experiment: biochemical.
T2 sequence (P08659 whole entry): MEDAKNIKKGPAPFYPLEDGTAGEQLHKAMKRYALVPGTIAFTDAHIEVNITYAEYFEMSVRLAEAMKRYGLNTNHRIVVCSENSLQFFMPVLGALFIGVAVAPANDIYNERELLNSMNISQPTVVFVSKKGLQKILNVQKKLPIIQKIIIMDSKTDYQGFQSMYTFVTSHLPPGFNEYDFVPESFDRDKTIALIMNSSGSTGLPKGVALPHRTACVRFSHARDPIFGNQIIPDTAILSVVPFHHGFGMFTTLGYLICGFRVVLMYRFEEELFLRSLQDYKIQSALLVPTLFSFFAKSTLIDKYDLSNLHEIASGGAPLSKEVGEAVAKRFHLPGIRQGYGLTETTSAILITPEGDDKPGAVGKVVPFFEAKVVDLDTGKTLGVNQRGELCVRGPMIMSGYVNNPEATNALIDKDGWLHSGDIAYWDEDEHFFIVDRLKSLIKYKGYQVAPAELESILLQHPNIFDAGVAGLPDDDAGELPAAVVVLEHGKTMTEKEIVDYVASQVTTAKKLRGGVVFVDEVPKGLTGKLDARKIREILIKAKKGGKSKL
In experiment [2] the target is T2, firefly luciferase. The experiment in a line: bioluminescence of transfected live CHO cells. As to conditions: 100 uM in HBSS. In kind it is cell-based.

Take `CN1CCc2cc3nc(C4=N[C@@H](C(=O)O)CS4)sc3cc21` [CycLuc2]: at CG6178, the “bioluminescence (photon flux, IVIS-100; burst kinetics)” value was “we found that CG6178 is capable of luciferase activity when treated with the synthetic luciferin CycLuc2”.

On to `O=C(O)[C@H]1CSC(c2nc3ccc(O)cc3s2)=N1` [D-luciferin], for which the “bioluminescence burst kinetics after rapid injection” value on firefly luciferase [1] was “more pronounced with the tighter-binding synthetic luciferins than with D-luciferin”.

Consider `O=C(O)[C@H]1CSC(/C=C/c2ccc(N3CCCC3)cc2)=N1` [compound 5, (S,E)-2-(4-(pyrrolidin-1-yl)styryl)-4,5-dihydrothiazole-4-carboxylic acid], for which the “bioluminescence of transfected live CHO cells” value on firefly luciferase [2] was “all three are substrates for firefly luciferase and AbLL”.
